These results are taken from PMC12375005 (Communications Biology, 2025).

Test [1] has as its target T1, TcGSTm8 (Tetranychus cinnabarinus, UniProt U5YE47).
T1 sequence (U5YE47 1-227): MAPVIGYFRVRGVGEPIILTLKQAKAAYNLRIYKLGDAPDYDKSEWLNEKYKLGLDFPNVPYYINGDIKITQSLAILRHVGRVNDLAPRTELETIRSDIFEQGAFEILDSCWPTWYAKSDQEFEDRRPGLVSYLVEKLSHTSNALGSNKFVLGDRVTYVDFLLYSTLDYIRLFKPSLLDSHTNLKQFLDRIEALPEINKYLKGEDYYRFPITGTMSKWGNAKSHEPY
Nature of the test: inhibition of CDNB conjugation. It is filed as biochemical. As to conditions: 6 mM GSH; 0.6 mM CDNB; 10 min preincubation 25 °C; 5% acetone.

Test [2] has as its system TcCCE34. The test can be described thus: inhibition of alpha-naphthyl acetate hydrolysis. Conditions: 3 × 10^−4 mol/L alpha-naphthyl acetate; 10 min preincubation 30 °C; 5% acetone. Type of test: biochemical, Tetranychus cinnabarinus.

By IC50 is commonly meant the point on the concentration scale where inhibition reaches its midpoint. High values mean weaker potency in that assay, low ones greater potency in that assay. With `CCOP(=S)(OCC)Oc1nc(Cl)c(Cl)cc1Cl` [chlorpyrifos], the half-maximal inhibitory concentration (IC50) in test [1] was 1180 ± 90 µM; in test [2], 57.2 ± 7.42 µM.
The like results for `COCCOC(=O)C(C#N)(C(=O)c1ccccc1C(F)(F)F)c1ccc(C(C)(C)C)cc1` (stereo not drawn) [cyflumetofen] were, in that order, 1570 ± 110 µM and 630 ± 39.8 µM.
In the case of `CC1(C)C(C(=O)OC(C#N)c2cccc(Oc3ccccc3)c2)C1(C)C` (stereo not drawn) [fenpropathrin], the IC50 was found to be 1090 ± 50 µM in test [1] and 42.5 ± 8.44 µM in test [2].
